Test [1] concerns Pseudomonas syringae pv. syringae EPS94. Nature of the test: MIC, growth inhibition in microtiter plates (TSB). Type of test: cell-based. Particulars: Pss, 25°C, 48 h, OD 600 nm, lowest concentration with no growth, given as interval of tested concentrations, three replicates, experiment repeated twice. The source says: (§1) The following plant pathogenic bacterial strains were used: Erwinia amylovora PMV6076 (Institut National de la Recherche Agronomique, Angers, France), Pseudomonas syringae pv. syringae EPS94 (Institut de Tecnologia Agroalimentària, Universitat de Girona, Spain), Xanthomonas axonopodis pv. vesicatoria 2133–2, Pseudomonas syringae pv. actinidiae Psa3700.1.1, Xanthomonas fragariae Xf349-9A (Instituto Valenciano de Investigaciones Agrarias, Valencia, Spain), and Xanthomonas arboricola pv. pruni CFBP5563 (Collection Française de Bactéries associées aux Plantes, Angers, France). All bacteria except for X. fragariae were stored in Luria Bertani (LB) broth supplemented with glycerol (20%) and maintained at -80°C. For X. fragariae, Medium B [46] was used instead of LB. E. amylovora, X. arboricola pv. pruni, P. syringae pv. syringae and P. syringae pv. actinidiae were scrapped from the agar media after growing for 24 h at 25°C, and X. axonopodis pv. vesicatoria and X. fragariae after growing for 48 h at 25°C. The cell material was suspended in sterile water to obtain a suspension of 10^8 CFU mL^-1.
(§2) Lyophilized peptides were solubilized in sterile Milli-Q water to a final concentration of 1 mM and filter sterilized through a 0.22-μm pore filter. […] For antibacterial activity 20 μL of each dilution were mixed in a microtiter plate well with 20 μL of the corresponding suspension of the bacterial indicator, 160 μL of Trypticase Soy Broth (TSB) (BioMèrieux, France) to a total volume of 200 μL. For antifungal activity 20 μL of each stock solution were mixed in a microtiter plate well with 80 μL of the corresponding suspension of the fungal pathogen and 100 μL of double concentrated Potato Dextrose Broth (PDB) to a total volume of 200 μL containing 0.003% w/v of chloramphenicol to prevent bacterial contamination.
(§3) Three replicates for each combination of strain, compound and concentration were used. Microbial growth was determined by optical density measurement at 600 nm (Bioscreen C, Labsystem, Helsinki, Finland). For antibacterial activity microplates were incubated at 25°C with 20 s shaking before hourly absorbance measurement for 48 h. For antifungal activity microplates were incubated at 22°C with 1 min shaking before absorbance measurement that were done every two hours during seven days. The experiment was repeated twice. The MIC was taken as the lowest compound concentration with no growth at the end of the experiment.

The subject of test [2] is Xanthomonas fragariae Xf349-9A. Nature of the test: MIC, growth inhibition in microtiter plates (TSB). The class given is cell-based. Conditions: Xf, 25°C, 48 h, OD 600 nm, lowest concentration with no growth, given as interval of tested concentrations, three replicates, experiment repeated twice.
Text: as §1, §2, §3

Test [3] has as its system Xanthomonas arboricola pv. pruni CFBP5563. Nature of the test: MIC, growth inhibition in microtiter plates (TSB). Type of test: cell-based. Particulars: Xap, 25°C, 48 h, OD 600 nm, lowest concentration with no growth, given as interval of tested concentrations, three replicates, experiment repeated twice.
Text: as §1, §2, §3

The test system of test [4] is Xanthomonas axonopodis pv. vesicatoria 2133–2. Nature of the test: MIC, growth inhibition in microtiter plates (TSB). The class given is cell-based. Conditions: Xav, 25°C, 48 h, OD 600 nm, lowest concentration with no growth, given as interval of tested concentrations, three replicates, experiment repeated twice.
Text: as §1, §2, §3

Test [5] deals with Erwinia amylovora PMV6076. Nature of the test: MIC, growth inhibition in microtiter plates (TSB). Type of test: cell-based. Particulars: Ea, 25°C, 48 h, OD 600 nm, lowest concentration with no growth, given as interval of tested concentrations, three replicates, experiment repeated twice.
Text: as §1, §2, §3

The subject of test [6] is Pseudomonas syringae pv. actinidiae Psa3700.1.1. Nature of the test: MIC, growth inhibition in microtiter plates (TSB). The class given is cell-based. Particulars: Psa, 25°C, 48 h, OD 600 nm, lowest concentration with no growth, given as interval of tested concentrations, three replicates, experiment repeated twice.
Text: as §1, §2, §3

In test [7] the test system is Penicillium expansum EPS26. Nature of the test: MIC, antifungal growth inhibition in microtiter plates (PDB). Conditions: Pe, 22°C, seven days, OD 600 nm, lowest concentration with no growth, given as interval of tested concentrations, three replicates, experiment repeated twice. Type of test: cell-based. On the procedure:
(§4) The following plant pathogenic fungal strains were used: Penicillium expansum EPS26 (Institut de Tecnologia Agroalimentària, Universitat de Girona, Spain) and Fusarium oxysporum f. sp. lycopersici FOL 3 race 2 (ATCC 201829, American Type Culture Collection,Virginia, EEUU). Strains were cultured on potato dextrose agar (PDA) plates (Difco). Conidia from P. expansum and microconidia from F. oxysporum were obtained from 5–7 day-old agar Potato Dextrose (PDA) cultures after growth at 25°C. Inoculum was prepared by scraping spore material from culture surfaces with a cotton swab and resuspending it in distilled water containing 0.5‰ of tween 80. The suspensions were filtered through Miracloth (Merk, Millipore) and the concentration of conidia was determined using a hemacytometer and adjusted to 10^4 conidia mL^-1 for F. oxysporum and to 10^3 conidia mL^-1 for P. expansum.
as §2, §3

Test [8] has as its system Fusarium oxysporum f. sp. lycopersici FOL 3 race 2. The description is as above. The class given is cell-based. Particulars: Fo, 22°C, seven days, OD 600 nm, lowest concentration with no growth, given as interval of tested concentrations, three replicates, experiment repeated twice. On the procedure: as §4, §2, §3
In test [9] the test system is defense-related genes in tomato plants. Nature of the test: Induction of defense gene expression of tomato plants (RT-qPCR). Conditions: tomato leaves sprayed, 24 h; peptides and flg15 125 μM, JA 2.5 mM, ASM 300 mg/L; ΔΔCt relative to actin; above 2 = overexpression. Type of test: in vivo, tomato cv. Rio Grande. How it is done:
Seeds of tomato cv. Rio Grande plants were sown in hydroponic seed plugs (rockwool), germinated and grown under controlled greenhouse conditions (25 ± 2°C, 16 h light / 15 ± 2°C, 8 h dark, and 60% RH). Two-week old seedlings (two cotyledons) were transplanted into rockwool plugs (7.5×7.5×6.5 cm, Grodan Iberica). The experimental design consisted of three replicates of three plants per treatment. After two weeks, tomato leaves were sprayed with aqueous solutions of BP100, 9 selected derivatives and flg15 at 125 μM, jasmonic acid at 2.5 mM (Sigma-Aldrich, Sant Louis, Missouri, UE), and acybenzolar-S-methyl at 300 mg/L (Syngenta, Basel, Switzerland), until the run-off point. Water-sprayed plants were used as not treated controls. Twenty-four hours after product application leaf samples were collected and processed to extract RNA for RT-qPCR assays. Plant material was ground to a fine powder in liquid nitrogen with the Tissuelyzer II system (Qiagen). Total RNA was extracted from leaves using PureLink Plant RNA Reagent (Invitrogen, Life Technologies) according to the manufacturer’s manual. The RNA was solubilized in RNAse free water and was routinely subjected to DNAse treatment (Ambion® Turbo DNA-free™, Life Technologies) to remove any contaminant DNA. In each step, the RNA was quantified using a Nanodrop N-2000 spectrophotometer, and its integrity verified by denaturing agarose gel electrophoresis. First-strand of complementary DNA (cDNA) was generated from leave RNA using reverse transcriptase (High Capacity cDNA Reverse Transcription Kit, Invitrogen) according to the manufacturer’s manual.
To test gene defense induction in the treated tomato plants, a qPCR assay was performed. Quantitative PCR was carried out in a fluorometric thermal cycler (qPCR Quant Studio 5, Applied Biosystems) by using a Mix SYBR®Green PCR Master Mix (Applied Biosystems). The total reaction volume of this PCR reaction was 20 μL and the reaction mixture was 1 μL of each primer set at the adequate concentration, 10 μL of MixSyber Green, 6 μL of distilled water and 2 μL of cDNA. Melting curve analysis was performed after amplification to verify amplification specificity. A constitutive gene (actin gene) was used as reference control, and the following genes implicated in plant defense response were analyzed: Pathogenesis-related protein-1 (PR1), Harpin (Harp), Polyphenol oxidase (PPO), Subtilisin-like protease (Sub1), Blue copper binding-protein (BCB), Osmotin (Osm2), Acidic β-1,3 endoglucanase (GluA), Lypoxigenase (LOX), Protein inhibitor II (PinII), Dehydrin (Tas14) and Ethylene response transcription factor (ERT3). […] For each gene system, the concentration of the primer pair was optimized. The primer concentration was 100 nM for all the genes except for the GluA, Harp, PR1 and actin genes which optimized concentration was 300 nM. A calibration curve was prepared by cloning the corresponding DNA in the pSpark cloning vector (Canvax, Córdoba, Spain) according to the manufacturer instructions, which was then used to transform E. coli DH5α by standard procedures. The number of plasmid copies were quantified after purification from E. coli (QIAGEN Iberia, S. L., Madrid, Spain), and appropriate dilutions were prepared to obtain the standard curve. […] Relative quantification of gene expression was done using the ΔΔCt method. Each biological repetition treatment was analyzed in duplicate. The mean of the Ct values obtained were used to estimate the fold change value of the endogenous reference gene (actin) and the target plant defense genes.
On the technique in general: Quantitative PCR measures a nucleic acid by following its amplification.

As to `CCCCCCCCCCCC(=O)NCCCC[C@H](NC(=O)[C@H](CCCCN)NC(=O)[C@H](CC(C)C)NC(=O)[C@@H](NC(=O)[C@H](CCCCN)NC(=O)[C@H](CCCCN)NC(=O)[C@H](Cc1ccccc1)NC(=O)[C@H](CC(C)C)NC(=O)[C@H](CCCCN)NC(=O)[C@H](CCCCN)NC(C)=O)[C@@H](C)CC)C(=O)N[C@@H](CC(C)C)C(N)=O` [BP401, Ac-KKLFKKILKK(COC11H23)L-NH2], the MIC was 6.2 to 12.5 µM in test [1]; 3.1 to 6.2 µM in [2]; 1.6 to 3.1 µM in [3]; 0.8 to 1.6 µM in test [4]; greater than 25 µM in test [5]; 6.2 to 12.5 µM in [6]. The MIC in test [7] is 12.5 to 25 µM; in [8] it was 6.2 to 12.5 µM.
As for `CCCC(=O)NCCCC[C@H](NC(=O)[C@H](CCCCN)NC(=O)[C@H](CCCCN)NC(=O)[C@H](Cc1ccccc1)NC(=O)[C@H](CC(C)C)NC(=O)[C@H](CCCCN)NC(=O)[C@H](CCCCN)NC(C)=O)C(=O)N[C@@H](CC(C)C)C(=O)N[C@@H](CCCCN)C(=O)N[C@@H](Cc1ccc(O)cc1)C(=O)N[C@@H](CC(C)C)C(N)=O` [BP386, Ac-KKLFKKK(COC3H7)LKYL-NH2], the MIC in test [2] is 12.5 to 25 µM; in test [3] it was 12.5 to 25 µM; in [4] it was 12.5 to 25 µM; in [5], 12.5 to 25 µM; in test [6] it was 6.2 to 12.5 µM; in test [7] it was greater than 25 µM. Moreover, the minimal inhibitory concentration (MIC) in test [8] lay within 12.5 to 25 µM.
For `CC/C=C\C[C@H]1C(=O)CC[C@@H]1CC(=O)O` [JA, jasmonic acid, reference compound], in test [9], the “BCB gene expression, fold induction” value worked out at 6.6; the “ERT3 gene expression, fold induction” value turned out to be 41.3; the “GluA gene expression, fold induction” value is 0.2; the “Harp gene expression, fold induction” value stood at 1.9. In test [9], the “LOX gene expression, fold induction” value amounted to 9.7; the “Osm2 gene expression, fold induction” value came to 48.4; the “PPO gene expression, fold induction” value is listed as greater than 50; the “PR1 gene expression, fold induction” value is reported as 2.9. Further, in test [9], the “PinII gene expression, fold induction” value is given as greater than 50; the “Sub1 gene expression, fold induction” value is 3.9; the “Tas14 gene expression, fold induction” value was 0.88.
Take `CCCCCCCCCCCC(=O)NCCCC[C@H](NC(=O)[C@H](CC(C)C)NC(=O)[C@H](CCCCN)NC(=O)[C@H](CCCCN)NC(C)=O)C(=O)N[C@@H](CCCCN)C(=O)N[C@@H](CCCCN)C(=O)N[C@H](C(=O)N[C@@H](CC(C)C)C(=O)N[C@@H](CCCCN)C(=O)N[C@@H](Cc1ccc(O)cc1)C(=O)N[C@@H](CC(C)C)C(N)=O)[C@@H](C)CC` [BP395, Ac-KKLK(COC11H23)KKILKYL-NH2]: the MIC lay in the range of 3.1 to 6.2 µM in test [1]; 1.6 to 3.1 µM in test [2]; 1.6 to 3.1 µM in [3]; 1.6 to 3.1 µM in [4]; 12.5 to 25 µM in test [5]; 3.1 to 6.2 µM in test [6]. Further, the MIC in test [7] was in the range of 12.5 to 25 µM; in [8], 6.2 to 12.5 µM.
In the case of `CSC(=O)c1cccc2nnsc12` [ASM, acybenzolar-S-methyl, reference compound], in [9], the “BCB gene expression, fold induction” value amounted to 12.1; the “ERT3 gene expression, fold induction” value amounted to 2.9; the “GluA gene expression, fold induction” value is reported as 5.9; the “Harp gene expression, fold induction” value was found to be 6.3. In test [9], the “LOX gene expression, fold induction” value was determined as 3.3; the “Osm2 gene expression, fold induction” value was 8.7; the “PPO gene expression, fold induction” value worked out at 2.9; the “PR1 gene expression, fold induction” value was found to be 4.8. In test [9], the “PinII gene expression, fold induction” value came to 0.5; the “Sub1 gene expression, fold induction” value turned out to be 11.6; the “Tas14 gene expression, fold induction” value worked out at 10.7.

Broadly, the MIC is the lowest concentration found to suppress growth.
